Measured values: US20110112132A1, “MEANS FOR THE TREATMENT OF ACUTE AND CHRONIC DISORDERS OF CEREBRAL CIRCULATION, INCLUDING INSULT, BASED ON HYDROGENATED PYRIDO (4,3-B) INDOLES (VARIANTS), PHARMACOLOGICAL MEANS BASED THEREON AND METHOD FOR THE USE THEREOF” (Medivation Neurology, Inc., priority 2006, published 2011)
Structures can show the parent of a compound that is named as a salt. Marks after values point to notes of the source that are not given here.

Tests used:
[1] = tested on: rats with cerebral ischemia induced by ligation of the carotid arteries; experiment: Rat brain ischemia by ligation of the carotid arteries: neurological deficit, McGraw Stroke index; assay type: in vivo; conditions: 0.1 mg/kg i.p.
Protocol: Rat brain ischemia, produced by irreversible occlusion of the carotid arteries, was performed in accordance with “Methodological instructions for the experimental study of preparations for the treatment of cerebral circulation and migraine,” in “Handbook on the experimental (preclinical) study of new pharmacological substances,” Meditsina, Moscow, 2005, pp. 332-338.
Experiments were performed on cross-bred male white rats weighing 200-250 g, anesthetized with chloral hydrate (350 mg/kg, i/p). Irreversible single-step bilateral ligation of the common carotid arteries was performed on the animals. In the group of sham-operated animals, the ligatures were applied to the vessels but were not tightened.
After completing the operation, the animals were divided randomly into groups: group one rats were given dimebon intraperitoneally at 0.1 mg/kg administered 30 minutes after the ligature was tied, then daily for 14 days after operation; group two rats were given nimodipine intraperitoneally at 0.1 mg/kg administered 30 minutes after the ligature was tied, then daily for 14 days after operation. Group one and group two animals were experiencing an acute cerebral circulation disturbance at the time of drug administration. Control group and sham-operated animals were given equivalent volumes of physiological saline (0.9% sodium chloride) at the same times.
Neurological deficit in animals with cerebral ischemia induced by ligation of the carotid arteries was determined using the McGraw Stroke index as modified by I. V. Gannushkina (Functional angioarchitectonics of the brain (1977) (Moscow, Meditsina) p. 224). The severity of the condition was determined from the sum of the corresponding scores. The number of rats with mild symptoms up to 2.5 points on the Stroke-index scale (sluggish movements, limb weakness, hemiptosis, tremor, circular movements) and with severe manifestations of neurological impairment (from 3 to 10 points)—limb paresis, paralysis of lower limbs, lateral position, was noted.

[2] = tested on: rats with hemorrhagic insult; experiment: Intracerebral post-traumatic hematoma (hemorrhagic insult) model: neurological deficit, McGraw Stroke index; assay type: in vivo, rat
Protocol: (§1) The study was performed in accordance with the “Methodological instructions for the experimental study of preparations for the treatment of cerebral circulation and migraine,” in “Handbook on the experimental (preclinical) study of new pharmacological substances,” Meditsina, Moscow, 2005, pp. 332-338, as modified by A. N. Makarenko et al. (“Method for modeling local hemorrhage in various brain structures in experimental animals,” Zh. vyssh. nervn. deyat. (2002) 52(6):765-768).
The experiments were performed on cross-bred male white rats weighing 200-250 g, kept in a vivarium with free access to food (standard pelleted feed) and water, and with natural alternation of day and night. Using a special device (mandrin-knife) and stereotaxis, brain tissue of rats anesthetized with nembutal (40 mg/kg, i/m) was destroyed in the region of the capsule interna, with subsequent (after 2-3 minutes) introduction into the damage site of blood taken from under the rat's tongue (0.02-0.03 ml). Scalping and trepanning of the skull were performed on sham-operated animals.
(§2) The animals were divided into 4 groups: sham-operated, a group of animals with hemorrhagic insult, animals with hemorrhagic insult which received dimebon intraperitoneally at a dose of 0.1 mg/kg, and animals with hemorrhagic insult which received nimodipine intraperitoneally at a dose of 0.1 mg/kg. The effects of the substances were recorded 24 hours, and 3, 7 and 14 days after operation.
Dimebon and nimodipine were administered intraperitoneally to animals with insult in an identical dose of 0.1 mg/kg 3-3.5 hours after operation, and then daily for 14 days after operation. An equal volume of physiological saline was administered intraperitoneally to the control groups of animals at identical intervals. Each group consisted of 9-18 animals at the start of the experiment.
The neurological deficit in the animals was determined using the McGraw Stroke index as modified by I. V. Gannushkina (Functional angioarchitectonics of the brain (1977) (Moscow, Meditsina) p. 224). The severity of the condition was determined from the sum of the corresponding scores. The number of rats with mild symptoms up to 2.5 points on the Stroke-index scale (sluggish movements, limb weakness, unilateral hemiptosis, tremor, circular movements) and with severe manifestations of neurological impairment (from 3 to 10 points)—limb paresis, paralysis of lower limbs, lateral position, was noted.

NMDA receptors = conditions: rat brain neurons; cited from earlier work
[3] = tested on: rats with hemorrhagic insult; experiment: Intracerebral post-traumatic hematoma (hemorrhagic insult) model: death of animals; assay type: in vivo, rat; conditions: 0.1 mg/kg i.p.; entire period of observation
Protocol: as §1
The experiments were performed on cross-bred male white rats weighing 200-250 g, kept in a vivarium with free access to food (standard pelleted feed) and water, and with natural alternation of day and night. […]
as §2, with “operation. […]” for “operation.”
Rat deaths were recorded over the entire 14 day period of observation. […]

AMPA receptors = conditions: rat brain neurons; cited from earlier work
[4] = 24 hours after operation (hemorrhagic insult), 0.1 mg/kg i.p.
[5] = 14 days after operation (hemorrhagic insult), 0.1 mg/kg i.p. daily

| Compound | Number of animals with bilateral hemiptosis ([1]; 1 day after ischemic insult) | Number of animals with limb weakness ([1]; 1 day after ischemic insult) [%] | Number of animals with sluggish, slow movements ([1]; 1 day after ischemic insult) | Number of animals with unilateral hemiptosis ([1]; 1 day after ischemic insult) [%] | Number of animals with bilateral hemiptosis ([1]; 3 days after ischemic insult) | Number of animals with limb weakness ([1]; 3 days after ischemic insult) [%] | Number of animals with sluggish, slow movements ([1]; 3 days after ischemic insult) [%] | Number of animals with unilateral hemiptosis ([1]; 3 days after ischemic insult) [%] | Number of animals with bilateral hemiptosis ([1]; 7 days after ischemic insult) | Number of animals with limb weakness ([1]; 7 days after ischemic insult) [%] | Number of animals with sluggish, slow movements ([1]; 7 days after ischemic insult) | Number of animals with unilateral hemiptosis ([1]; 7 days after ischemic insult) [%] | Number of animals with bilateral hemiptosis ([1]; 14 days after ischemic insult) [%] | Number of animals with limb weakness ([1]; 14 days after ischemic insult) [%] | Number of animals with sluggish, slow movements ([1]; 14 days after ischemic insult) [%] | Number of animals with unilateral hemiptosis ([1]; 14 days after ischemic insult) [%] | Number of animals with unilateral ptosis ([1]; 14 days after ischemic insult) [%] | Number of animals with circular movements [2, 4] [%] | Number of animals with limb weakness [2, 4] [%] | Number of animals with paresis of 1-4 limbs [2, 4] | further results |
| --- | --- | --- | --- | --- | --- | --- | --- | --- | --- | --- | --- | --- | --- | --- | --- | --- | --- | --- | --- | --- | --- |
| COCCOC(=O)C1=C(C)NC(C)=C(C(=O)OC(C)C)C1c1cccc([N+](=O)[O-])c1 (stereo not shown) [nimodipine, reference compound] | 50% | 20 | 50% | 20 | 20* % | 0 | 30 | 20 | 20* % | 10 | 0% | 0 | 0 | 0 | 0 | 0 | 0 | 25 | 50 | 25* % | Number of animals with sluggish, slow movements [2, 4]: 50%; Number of animals with circular movements [2, 5]: 0%; Number of animals with limb weakness [2, 5]: 0%; Number of animals with paresis of 1-4 limbs [2, 5]: 0* %; Number of animals with sluggish, slow movements [2, 5]: 16.6% |
| Cc1ccc2c(c1)c1c(n2CCc2ccc(C)nc2)CCN(C)C1 [dimebon, 2,8-dimethyl-5-[2-(6-methyl-pyridyl-3-)ethyl]2,3,4,5-tetrahydro-1H-pyrido[4,3-b]indole dihydrochloride] | 33.3* % | 16.7 | 33.3* % | 16.7 | 25.0* % | 16.7 | 33.3 | 0 | 9.1* % | 9.1 | 9.1* % | 0 | 0 | 0 | 0 | 0 | 0 | 33 | 66 | 33% | Effect on neurological deficit in rats with ischemia, in words ([1]; first and particularly seventh day after operation): prevented the development of neurological deficit; Effect on NMDA receptors, in words (NMDA receptors): blocks the NMDA receptors; Effect on number of animals with pareses after hemorrhagic insult, in words ([2]; 0.1 mg/kg i.p., first day of observation): almost halving the number of animals with pareses; Number of animals with sluggish, slow movements [2, 4]: 88%; Number of animals with circular movements [2, 5]: 0%; Number of animals with limb weakness [2, 5]: 7%; Number of animals with paresis of 1-4 limbs [2, 5]: 0%; Number of animals with sluggish, slow movements [2, 5]: 7%; Effect on death of animals after hemorrhagic insult, in words [3]: almost completely prevented the death of animals; Effect on transmembrane currents induced by the activation of AMPA receptors, in words (AMPA receptors): potentiates the transmembrane currents |
